Experimental data from US9045524B2, “Selective caspase inhibitors and uses thereof” (NOVAGENESIS FOUNDATION, priority 2009, dated 2015).

Assays:
Caspase-7 [1] = biological target: T1, Caspase-7 (Homo sapiens (Human), UniProt P55210); assay: Caspase-7 Inhibitor Drug Screening Kit, fluorometric (AFC liberation); format: biochemical; settings: 30-minute incubation at 37° C.; approximations of the average values; read-out: Caspase enzymatic activity, IC50 (uM) Caspase 7
Target sequence in this assay (P55210 whole entry): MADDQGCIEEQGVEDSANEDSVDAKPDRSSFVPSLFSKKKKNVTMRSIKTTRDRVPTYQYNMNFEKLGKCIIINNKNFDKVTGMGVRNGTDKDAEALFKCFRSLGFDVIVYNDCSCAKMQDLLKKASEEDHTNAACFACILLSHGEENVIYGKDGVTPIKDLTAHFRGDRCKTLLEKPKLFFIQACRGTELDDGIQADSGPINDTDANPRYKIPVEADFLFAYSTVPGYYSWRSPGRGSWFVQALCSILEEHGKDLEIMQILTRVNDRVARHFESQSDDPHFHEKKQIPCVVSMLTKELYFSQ
Method: The level of inhibition of caspase-1, -3, -5, -7, -9 activity was determined by comparison of the relative fluorescence intensity in samples with or without the compound.

Glo3/7 = Glo3/7 assay; format: biochemical
EAE in C57BL/6 mice = assay: Chronic EAE mouse model (MOG35-55 immunization), daily clinical score and body weight; format: in vivo; parameters: key to Delay in onset of the disease / Reduction in severity of the disease / Reduction in body weight loss: +++: high level improvement; ++: moderate improvement; +: small improvement; −: no improvement
How it was run: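 Female C57BL/6 mice, 7–8 weeks old, were immunized s.c. with 100 μg MOG35-55 in CFA containing M. tuberculosis H37Ra, plus 200 ng pertussis toxin i.p. on days 0 and 2. […], compound in 2.5% DMSO/PBS was given i.p.; vehicle for placebo. Clinical score (0–5) and body weight were recorded daily.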

Caspase-8 = Caspase-8 (Homo sapiens (Human), UniProt Q14790); assay: Fluorometric enzymatic assay, active recombinant Caspase-8; format: biochemical; settings: 10-point titration 0.1 nM to 3.3 μM, 30-minute incubation at 37° C.; read-out: IC50 values (μM) Caspase-8
Method: . In brief, each compound was serially diluted for a final test concentration range of 0.1 nM to 3.3 μM (10-point titration). Each active recombinant Caspase (Active Recombinant Caspase Set IV™ (BioVision, Cat# K233-10-25)) was added to the respective wells of the 96-well High Efficiency™ plates (Molecular Devices, Cat#75-000-0005), followed by the addition of the diluted test compounds. DMSO (Final=1%) or Z-VAD-FMK (Caspase-Family Inhibitor, Z-VAD-FMK (BioVision, Cat#1010-100), Final concentration=20 uM) was added in the designated wells as a background control or positive inhibitor control respectively. Each dilution of the test compounds was tested in duplicates, whereas the DMSO or Z-VAD-FMK controls were tested in triplicates. The synthetic peptide substrate specific for each Caspase (BioVision) was then added to the respective wells, which when cleaved by the active caspase releases free AFC that can be quantified by fluorometry. After a 30-minute incubation at 37° C., the plates were read using the Flexstation 3™ with a 400 nm excitation filter and a 505 nm emission filter (cutoff at 495 nm). The inhibition efficiency and the IC50 values of the test compounds were then determined by comparing the fluorescence intensity (FI) of the test compounds with that of the DMSO control.
The SoftMax Pro Software™ (v5.2 rev C, Molecular Devices) was used for data analysis. The % Inhibition is calculated by: % Inhibition=[FI(DMSO)−FI(test sample)/FI(DMSO)]×100. The % Inhibition vs. Log(concentration) was plotted, and the curve was fitted using the 5-parameter fit of the software.

Caspase-7 [2] = biological target: T1, Caspase-7; assay: Fluorometric enzymatic assay, active recombinant Caspase-7
Target sequence in this assay (P55210 whole entry, looked up): as the sequence (P55210 whole entry) above
Target sequence in this assay (P55210 whole entry, looked up): as the sequence (P55210 whole entry) above
Method: Each dilution of the test compounds was tested in duplicates, whereas the DMSO or Z-VAD-FMK controls were tested in triplicates. […] The inhibition efficiency and the IC50 values of the test compounds were then determined by comparing the fluorescence intensity (FI) of the test compounds with that of the DMSO control.

[3] = FIG. 1, i.p. from day 10 to 16 post immunization, versus placebo
[4] = FIG. 3, i.p. from day 14 to 19 post immunization, versus placebo
[5] = FIG. 4, administration for 15 days from day 12 post-immunization, versus placebo
[6] = average overall effects on the EAE model, i.p.

Sequence of Caspase-8 (Q14790 217-374): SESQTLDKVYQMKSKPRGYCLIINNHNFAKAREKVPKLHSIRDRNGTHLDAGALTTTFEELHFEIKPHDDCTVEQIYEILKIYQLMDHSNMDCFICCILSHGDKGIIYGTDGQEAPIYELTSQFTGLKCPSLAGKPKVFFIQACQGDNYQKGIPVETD
Sequence of Caspase-8 (Q14790 385-479): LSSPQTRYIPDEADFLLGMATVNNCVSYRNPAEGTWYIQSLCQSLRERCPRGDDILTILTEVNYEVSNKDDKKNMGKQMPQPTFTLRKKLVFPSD

CC(C)[C@H](NC(=O)[C@@H](NC(=O)[C@H](CC(=O)O)NC(=O)OCc1ccccc1)c1ccccc1)C(=O)N[C@H](/C=C/S(C)(=O)=O)CC(=O)O [Compound 53, Z-Asp-Phg-Val-Aspmethyl vinyl sulfone]
IC50 (Caspase-7 [1]): 0.8 µM
IC50 (Glo3/7): 0.1 µM
Cumulative clinical score (EAE in C57BL/6 mice; [3]): significantly lower compared to placebo
Disease onset (EAE in C57BL/6 mice; [3]): delayed
Loss of body weight (EAE in C57BL/6 mice; [3]): less than the placebo
clinical severity of the disease (EAE in C57BL/6 mice; [3]): reduced significantly
maximal clinical score (EAE in C57BL/6 mice; [3]): significantly lower compared to placebo
delay of the clinical score (symptoms of EAE) (EAE in C57BL/6 mice; FIG. 3, i.p. from day 14 to 19 post immunization, twice the concentration of compound 53): delayed significantly the clinical score
Loss of body weight (EAE in C57BL/6 mice; [4]): less than in the placebo group
effects on the clinical course of EAE (EAE in C57BL/6 mice; [4]): ameliorating effects
Loss of body weight (EAE in C57BL/6 mice; [5]): less than placebo
severity of the disease (EAE in C57BL/6 mice; [5]): began to reverse the effects of the disease and reduced the severity of the disease continuously
Delay in onset of the disease (EAE in C57BL/6 mice; [6]): +++
Reduction in body weight loss (EAE in C57BL/6 mice; [6]): +++
Reduction in severity of the disease (EAE in C57BL/6 mice; [6]): +++
IC50 (Caspase-8): > 3.33 µM
inhibitory activity towards Caspase-7 (Caspase-7 [2]; FIG. 5): high inhibitory activity
IC50 (Caspase-7 [2]; read-out: IC50 values (μM) Caspase-7, 10-point titration 0.1 nM to 3.3 μM, 30-minute incubation at 37° C.): 0.8 µM
